The source of these data is patent publication US12721856B2, “Psilocybin compositions, methods of making and methods of using the same” (priority 2021, dated 2026).

A short description of this series: Solubility in water. In kind it is physicochemical. The text has this: The psilocybin in the form Polymorph A or A′ has the general properties illustrated in Table 5 below: […]

By solubility is commonly meant the concentration that dissolves in the medium under given conditions. Higher therefore signals a readily soluble substance.

Molecules are shown by their SMILES. In brackets after ≈: the same amount, converted by molar mass.

`CN(C)CCc1c[nH]c2cccc(OP(=O)(O)O)c12` [Psilocybin] came in with a solubility of about 15 mg/mL (≈ 52.8 mM).
